In patent US4576961A, “Antibiotic heterocyclic oxygen compounds and use” (priority 1980, dated 1986):

Columns and labels:
[1] = stability of PR-1381 in solution; format: physicochemical
Procedure: Characteristic signals seen in an ^1 H-NMR-spectrum recorded immediately after dissolution of PR-1381 in deuterochloroform are listed in table E.
When the solution in deuterochloroform is allowed to stand at room temperature, these initial signals gradually disappear while methanol is liberated from the molecule, and finally after 10 hours, a spectrum is observed which is identical with that obtained from PR-1350 complex in deuterochloroform, except for an extra signal at δ=3.48, probably due to methanol liberated during the transformation of PR-1381 to the PR-1350 complex.

microorganisms = experiment: anti-microbial effect; format: cell-based

For `COC1(O)C(O)OC(CC2(C)C(C)CCC3(C)C(C=O)=CCCC32)C12CO2` (stereo not shown) [PR-1381], the “time after which spectrum is identical with that of PR-1350 complex” value ([1]; deuterochloroform, room temperature) was 10 h, the decomposition in solution ([1]; in solution) was “decomposes to the PR-1350 complex with liberation of methanol” and the antibiotic activity (microorganisms) was “antibiotically active”. For the same molecule, the “anti-microbial effect compared with PR-1350 complex” value (microorganisms; qualitatively and quantitatively) was “identical with that of the PR-1350 complex”.
